≈ marks a conversion by molar mass, not a printed value. Calls of active or inactive are those of the source. The rule behind the calls is not given here.
What was measured:
[1] = target: T1, Inhibitor of nuclear factor kappa-B kinase subunit alpha (Homo sapiens, UniProt O15111)
T1 sequence (O15111 whole entry): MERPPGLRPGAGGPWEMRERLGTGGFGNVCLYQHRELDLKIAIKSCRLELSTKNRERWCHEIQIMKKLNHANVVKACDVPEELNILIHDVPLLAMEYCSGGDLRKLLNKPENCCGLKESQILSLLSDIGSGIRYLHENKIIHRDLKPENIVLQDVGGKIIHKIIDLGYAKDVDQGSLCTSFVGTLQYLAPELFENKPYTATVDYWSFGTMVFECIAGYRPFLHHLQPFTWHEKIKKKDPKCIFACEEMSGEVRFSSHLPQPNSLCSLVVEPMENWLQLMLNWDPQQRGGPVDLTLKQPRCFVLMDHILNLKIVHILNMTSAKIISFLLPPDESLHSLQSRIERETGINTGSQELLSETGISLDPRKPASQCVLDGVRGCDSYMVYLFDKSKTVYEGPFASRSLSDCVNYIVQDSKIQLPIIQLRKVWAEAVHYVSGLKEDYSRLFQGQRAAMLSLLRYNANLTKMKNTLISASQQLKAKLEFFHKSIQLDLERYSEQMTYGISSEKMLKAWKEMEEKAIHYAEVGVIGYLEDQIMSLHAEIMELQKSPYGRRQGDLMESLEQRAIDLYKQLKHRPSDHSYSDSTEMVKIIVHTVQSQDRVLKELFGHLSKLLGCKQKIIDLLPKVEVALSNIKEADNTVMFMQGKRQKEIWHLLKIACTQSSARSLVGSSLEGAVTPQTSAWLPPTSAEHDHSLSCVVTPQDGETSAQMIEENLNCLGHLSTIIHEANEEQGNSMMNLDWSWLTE

[2] = target: T2, Inhibitor of nuclear factor kappa-B kinase subunit beta (Homo sapiens, UniProt O14920)
T2 sequence (O14920 whole entry): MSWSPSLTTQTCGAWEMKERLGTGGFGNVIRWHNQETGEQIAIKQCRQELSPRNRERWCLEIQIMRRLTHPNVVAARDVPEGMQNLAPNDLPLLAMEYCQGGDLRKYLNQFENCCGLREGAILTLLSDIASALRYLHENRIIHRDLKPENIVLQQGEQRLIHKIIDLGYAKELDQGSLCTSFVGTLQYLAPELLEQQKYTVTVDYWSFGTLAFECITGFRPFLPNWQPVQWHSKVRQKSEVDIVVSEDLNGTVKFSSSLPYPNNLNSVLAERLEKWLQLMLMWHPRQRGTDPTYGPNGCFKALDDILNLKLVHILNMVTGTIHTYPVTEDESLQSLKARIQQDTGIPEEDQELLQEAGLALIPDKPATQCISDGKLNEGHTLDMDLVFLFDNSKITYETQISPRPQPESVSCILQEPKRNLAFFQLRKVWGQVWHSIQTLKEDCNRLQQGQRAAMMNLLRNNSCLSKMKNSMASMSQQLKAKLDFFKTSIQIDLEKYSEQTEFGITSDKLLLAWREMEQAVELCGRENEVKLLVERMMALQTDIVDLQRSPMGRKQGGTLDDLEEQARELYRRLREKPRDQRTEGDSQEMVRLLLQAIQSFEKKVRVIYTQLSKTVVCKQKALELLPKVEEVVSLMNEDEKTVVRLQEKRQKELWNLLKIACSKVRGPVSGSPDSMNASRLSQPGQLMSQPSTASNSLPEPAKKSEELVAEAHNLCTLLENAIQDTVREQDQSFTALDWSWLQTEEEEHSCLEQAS

[3] = Cytotoxicity against Jurkat cells by Alamar blue assay; conditions: human
[4] = target: T3, Inhibitor of nuclear factor kappa-B kinase subunit epsilon (Homo sapiens) (UniProt Q14164); assay: Inhibition of IKKepsilon
T3 sequence (whole entry): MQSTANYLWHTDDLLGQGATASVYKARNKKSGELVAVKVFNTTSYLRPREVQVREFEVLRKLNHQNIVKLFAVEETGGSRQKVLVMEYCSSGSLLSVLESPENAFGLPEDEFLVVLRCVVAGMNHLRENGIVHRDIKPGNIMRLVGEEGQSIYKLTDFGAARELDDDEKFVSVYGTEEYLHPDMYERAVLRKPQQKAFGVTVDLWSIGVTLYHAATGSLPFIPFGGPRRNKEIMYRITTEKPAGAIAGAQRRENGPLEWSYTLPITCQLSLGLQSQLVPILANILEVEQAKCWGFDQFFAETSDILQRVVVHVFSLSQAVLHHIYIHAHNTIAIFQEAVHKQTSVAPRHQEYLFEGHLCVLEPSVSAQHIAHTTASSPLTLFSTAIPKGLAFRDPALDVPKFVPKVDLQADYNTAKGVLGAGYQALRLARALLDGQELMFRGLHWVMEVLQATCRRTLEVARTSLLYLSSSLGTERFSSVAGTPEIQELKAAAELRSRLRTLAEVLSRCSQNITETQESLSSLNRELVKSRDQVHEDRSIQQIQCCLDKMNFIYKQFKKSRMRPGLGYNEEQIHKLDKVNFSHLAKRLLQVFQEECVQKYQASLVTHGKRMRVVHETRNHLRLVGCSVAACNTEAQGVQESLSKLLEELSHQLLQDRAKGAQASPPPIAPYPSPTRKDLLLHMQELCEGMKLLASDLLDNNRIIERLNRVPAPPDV

Jurkat = assay: Inhibition of TNF-alpha-induced response in Jurkat cells; conditions: Homo sapiens
Liver microsomes = assay: Metabolic stability in human liver microsomes; type: ADME, Microsome
Liver = assay: Metabolic stability in mouse liver microsomes; type: ADME, Microsome
[5] = Cmax in mouse at 10 mg/kg, po; type: ADME, organism-based; design: dose 10 mg/kg, route oral; conditions: in vivo
[6] = AUC(1 to 4 hrs) in mouse at 10 mg/kg, po; type: ADME, organism-based; design: time upper 4 hr, time lower 1 hr, dose 10 mg/kg, route oral; conditions: plasma
PBMC = assay: Inhibition of LPS-induced TNFalpha production in PBMC; type: functional, cell-based; conditions: Homo sapiens
[7] = Tmax in mouse at 10 mg/kg, po; type: ADME, organism-based; design: dose 10 mg/kg, route oral; conditions: in vivo
[8] = target: MAP kinase p38 (Homo sapiens) (UniProt O15264+Q15759+Q16539+P53778); assay: Inhibition of p38; type: protein assay
[9] = target: Epidermal growth factor receptor (Homo sapiens) (UniProt P00533); assay: Inhibition of Her1
Epidermal growth factor receptor (Homo sapiens), sequence (P00533 whole entry): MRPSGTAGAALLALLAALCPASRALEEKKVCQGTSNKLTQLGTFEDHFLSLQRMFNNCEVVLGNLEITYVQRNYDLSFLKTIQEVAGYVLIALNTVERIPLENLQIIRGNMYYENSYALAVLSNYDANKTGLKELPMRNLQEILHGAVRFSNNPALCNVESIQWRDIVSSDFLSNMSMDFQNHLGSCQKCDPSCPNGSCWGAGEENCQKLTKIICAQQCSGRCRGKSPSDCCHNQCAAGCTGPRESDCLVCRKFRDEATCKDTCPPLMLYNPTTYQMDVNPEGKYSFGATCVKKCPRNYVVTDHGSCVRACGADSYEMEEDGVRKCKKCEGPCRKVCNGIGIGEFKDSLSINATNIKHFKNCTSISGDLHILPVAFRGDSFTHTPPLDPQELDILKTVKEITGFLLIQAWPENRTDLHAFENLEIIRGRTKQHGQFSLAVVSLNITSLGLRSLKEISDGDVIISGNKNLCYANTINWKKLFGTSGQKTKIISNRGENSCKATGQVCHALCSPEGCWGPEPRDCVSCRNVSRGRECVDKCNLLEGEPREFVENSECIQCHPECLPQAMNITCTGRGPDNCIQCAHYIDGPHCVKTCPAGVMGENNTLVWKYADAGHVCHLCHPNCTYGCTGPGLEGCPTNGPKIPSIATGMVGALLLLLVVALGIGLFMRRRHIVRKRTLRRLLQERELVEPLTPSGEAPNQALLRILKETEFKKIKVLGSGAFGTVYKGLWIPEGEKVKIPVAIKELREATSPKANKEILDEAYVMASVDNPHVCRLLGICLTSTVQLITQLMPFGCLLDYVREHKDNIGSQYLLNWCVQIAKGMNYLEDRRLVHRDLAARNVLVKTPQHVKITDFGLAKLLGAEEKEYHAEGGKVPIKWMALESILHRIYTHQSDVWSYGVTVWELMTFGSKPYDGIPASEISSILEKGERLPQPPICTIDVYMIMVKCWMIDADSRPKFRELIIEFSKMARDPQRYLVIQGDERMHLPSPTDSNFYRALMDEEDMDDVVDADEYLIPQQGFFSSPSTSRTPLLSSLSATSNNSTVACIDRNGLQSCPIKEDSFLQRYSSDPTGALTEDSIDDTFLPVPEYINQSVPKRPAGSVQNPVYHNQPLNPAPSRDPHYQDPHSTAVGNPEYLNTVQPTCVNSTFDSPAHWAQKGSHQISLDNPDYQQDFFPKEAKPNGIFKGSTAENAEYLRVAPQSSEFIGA

[10] = target: Receptor tyrosine-protein kinase erbB-2 (Homo sapiens) (UniProt P04626); assay: Inhibition of Her2
Receptor tyrosine-protein kinase erbB-2 (Homo sapiens), sequence (P04626 whole entry): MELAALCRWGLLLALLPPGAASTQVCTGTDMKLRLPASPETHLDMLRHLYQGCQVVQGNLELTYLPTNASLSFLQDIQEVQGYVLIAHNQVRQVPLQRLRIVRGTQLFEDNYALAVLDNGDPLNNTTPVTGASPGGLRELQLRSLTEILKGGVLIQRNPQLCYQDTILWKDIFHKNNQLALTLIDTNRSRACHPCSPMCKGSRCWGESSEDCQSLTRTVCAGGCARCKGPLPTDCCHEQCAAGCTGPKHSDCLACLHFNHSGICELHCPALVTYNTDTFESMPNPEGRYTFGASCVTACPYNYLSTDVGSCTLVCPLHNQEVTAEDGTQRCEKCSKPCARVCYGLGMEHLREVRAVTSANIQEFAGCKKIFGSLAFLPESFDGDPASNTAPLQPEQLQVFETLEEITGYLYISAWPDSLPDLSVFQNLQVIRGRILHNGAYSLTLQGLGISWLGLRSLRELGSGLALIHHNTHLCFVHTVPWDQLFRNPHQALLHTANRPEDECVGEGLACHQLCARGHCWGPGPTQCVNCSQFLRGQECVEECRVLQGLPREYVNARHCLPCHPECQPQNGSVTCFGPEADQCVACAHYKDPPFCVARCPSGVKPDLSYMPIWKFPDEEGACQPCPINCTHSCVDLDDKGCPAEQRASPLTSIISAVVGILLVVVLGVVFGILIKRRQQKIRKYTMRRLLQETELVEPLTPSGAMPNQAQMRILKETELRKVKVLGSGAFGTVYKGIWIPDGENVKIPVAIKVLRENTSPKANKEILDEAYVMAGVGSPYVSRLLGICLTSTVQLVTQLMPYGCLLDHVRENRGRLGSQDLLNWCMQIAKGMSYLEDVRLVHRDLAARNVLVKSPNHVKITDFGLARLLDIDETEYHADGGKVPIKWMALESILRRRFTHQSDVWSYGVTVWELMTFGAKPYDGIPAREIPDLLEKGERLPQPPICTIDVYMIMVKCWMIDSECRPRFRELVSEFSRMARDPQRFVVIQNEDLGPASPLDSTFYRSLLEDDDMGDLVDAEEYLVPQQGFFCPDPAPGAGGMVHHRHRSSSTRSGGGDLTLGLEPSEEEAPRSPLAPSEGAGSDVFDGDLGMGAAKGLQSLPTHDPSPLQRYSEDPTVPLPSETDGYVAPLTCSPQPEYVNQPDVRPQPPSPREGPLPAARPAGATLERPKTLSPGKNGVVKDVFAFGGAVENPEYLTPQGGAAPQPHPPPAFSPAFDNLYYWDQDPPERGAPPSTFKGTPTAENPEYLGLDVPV

[11] = target: Tyrosine-protein kinase Lck (Homo sapiens) (UniProt P06239); assay: Inhibition of LCK
Tyrosine-protein kinase Lck (Homo sapiens), sequence (P06239 2-509 limits assumed): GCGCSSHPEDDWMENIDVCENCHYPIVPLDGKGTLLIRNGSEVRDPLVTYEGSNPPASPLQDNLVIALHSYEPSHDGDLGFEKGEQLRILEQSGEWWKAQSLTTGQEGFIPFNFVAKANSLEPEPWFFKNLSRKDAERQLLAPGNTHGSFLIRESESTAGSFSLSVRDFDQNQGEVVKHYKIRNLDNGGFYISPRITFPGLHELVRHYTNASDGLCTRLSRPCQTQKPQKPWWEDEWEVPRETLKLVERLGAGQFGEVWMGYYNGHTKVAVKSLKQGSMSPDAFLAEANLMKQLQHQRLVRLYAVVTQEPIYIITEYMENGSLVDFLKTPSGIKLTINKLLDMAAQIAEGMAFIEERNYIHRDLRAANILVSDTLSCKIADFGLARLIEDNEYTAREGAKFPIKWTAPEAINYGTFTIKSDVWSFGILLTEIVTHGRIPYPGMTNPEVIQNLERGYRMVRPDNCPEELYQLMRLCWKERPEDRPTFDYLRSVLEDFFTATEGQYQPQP

[12] = target: T4, Tyrosine-protein kinase ITK/TSK (Homo sapiens) (UniProt Q08881); assay: Inhibition of EMT
T4 sequence (whole entry): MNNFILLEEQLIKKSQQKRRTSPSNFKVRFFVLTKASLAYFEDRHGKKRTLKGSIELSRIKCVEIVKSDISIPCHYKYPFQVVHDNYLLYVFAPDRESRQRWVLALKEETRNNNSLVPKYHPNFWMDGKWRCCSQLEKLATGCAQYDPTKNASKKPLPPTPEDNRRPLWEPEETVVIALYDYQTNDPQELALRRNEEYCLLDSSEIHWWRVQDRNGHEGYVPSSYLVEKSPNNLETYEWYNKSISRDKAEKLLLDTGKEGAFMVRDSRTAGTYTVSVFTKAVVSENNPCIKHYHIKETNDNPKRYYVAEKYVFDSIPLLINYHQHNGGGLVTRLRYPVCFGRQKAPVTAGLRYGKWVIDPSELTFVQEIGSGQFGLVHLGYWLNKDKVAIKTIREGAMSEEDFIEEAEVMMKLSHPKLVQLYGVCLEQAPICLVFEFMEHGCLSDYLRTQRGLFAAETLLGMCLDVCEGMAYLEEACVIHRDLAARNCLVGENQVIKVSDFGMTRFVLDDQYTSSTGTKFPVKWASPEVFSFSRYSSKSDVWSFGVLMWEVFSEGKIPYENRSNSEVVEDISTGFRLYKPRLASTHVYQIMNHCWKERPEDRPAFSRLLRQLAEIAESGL

Homo sapiens [13] = organism: Homo sapiens; assay: Inhibition of VEGF
[14] = target: Insulin-like growth factor 1 receptor (Homo sapiens) (UniProt P08069); assay: Inhibition of IGF1R
Insulin-like growth factor 1 receptor (Homo sapiens), sequence (P08069 31-736 limits assumed): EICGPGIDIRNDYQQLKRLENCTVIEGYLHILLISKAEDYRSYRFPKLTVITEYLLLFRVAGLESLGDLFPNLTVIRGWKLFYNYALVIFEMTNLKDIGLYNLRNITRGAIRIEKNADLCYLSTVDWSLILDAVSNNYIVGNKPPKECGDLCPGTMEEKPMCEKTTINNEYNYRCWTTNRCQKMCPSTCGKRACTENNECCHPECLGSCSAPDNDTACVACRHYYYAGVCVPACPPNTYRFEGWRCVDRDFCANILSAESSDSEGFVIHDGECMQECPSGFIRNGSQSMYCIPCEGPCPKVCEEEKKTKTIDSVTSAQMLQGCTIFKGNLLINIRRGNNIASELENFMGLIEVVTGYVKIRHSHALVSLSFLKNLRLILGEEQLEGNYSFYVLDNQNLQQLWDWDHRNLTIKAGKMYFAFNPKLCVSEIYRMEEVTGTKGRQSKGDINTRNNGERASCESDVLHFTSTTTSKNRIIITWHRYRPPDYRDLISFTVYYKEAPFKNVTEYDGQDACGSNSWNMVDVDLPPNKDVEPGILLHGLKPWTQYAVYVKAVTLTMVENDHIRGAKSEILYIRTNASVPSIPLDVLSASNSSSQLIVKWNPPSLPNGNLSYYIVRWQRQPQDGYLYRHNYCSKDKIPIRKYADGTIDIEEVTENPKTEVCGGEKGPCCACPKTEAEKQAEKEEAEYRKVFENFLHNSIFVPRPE
Insulin-like growth factor 1 receptor (Homo sapiens), sequence (P08069 741-1367 limits assumed): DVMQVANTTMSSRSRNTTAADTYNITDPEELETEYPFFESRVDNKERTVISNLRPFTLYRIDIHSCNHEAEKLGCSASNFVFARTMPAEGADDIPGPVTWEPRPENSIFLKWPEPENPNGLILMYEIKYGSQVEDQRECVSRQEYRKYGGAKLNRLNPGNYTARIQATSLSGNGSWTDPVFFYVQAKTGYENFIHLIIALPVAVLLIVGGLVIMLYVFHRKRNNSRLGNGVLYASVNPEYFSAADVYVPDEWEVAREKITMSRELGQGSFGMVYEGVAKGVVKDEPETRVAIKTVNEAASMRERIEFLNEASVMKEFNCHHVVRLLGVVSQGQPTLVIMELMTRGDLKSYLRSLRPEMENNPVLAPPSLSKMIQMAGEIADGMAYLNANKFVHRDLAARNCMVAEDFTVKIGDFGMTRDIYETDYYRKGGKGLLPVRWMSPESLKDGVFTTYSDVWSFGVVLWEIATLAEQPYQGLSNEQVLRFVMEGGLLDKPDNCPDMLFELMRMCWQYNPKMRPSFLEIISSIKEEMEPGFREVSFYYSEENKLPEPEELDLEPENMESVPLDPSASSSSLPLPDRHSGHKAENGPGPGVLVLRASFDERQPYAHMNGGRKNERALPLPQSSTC

Homo sapiens [15] = organism: Homo sapiens; assay: Inhibition of PKA
[16] = Aqueous solubility in sodium phosphate buffer at pH 6.5; type: physicochemical

Row | SMILES | IC50 [1] [nM] | IC50 [2] [nM] | EC50 (Jurkat) [nM] | CC50 ([3]; Jurkat cells) [nM] | further results
1 | CNc1nc2cc(-c3cccc(CN)c3)sc2n2c(C)cnc12 | 220 | 8.5 | 5880 | 19000 | Activity [4]: inactive
2 | Cc1cnc2c(NCCN3CCCCC3)nc3cc(-c4ccccc4)sc3n12 | 3130 | 40 | 13400 | 15000 | Activity [4]: inactive; Activity [8]: inactive; Activity [9]: inactive; Activity [10]: inactive; Activity [11]: inactive; Activity [12]: inactive; Activity (Homo sapiens [13]): inactive; Activity [14]: inactive; Activity (Homo sapiens [15]): inactive
3 | CNc1nc2cc(-c3cccc(CNS(N)(=O)=O)c3)sc2n2c(C)cnc12 | 170 | 3 | 270 | > 100000 | Stability (Liver microsomes): 0.035 nmol/mg/min; Stability (Liver): 0.231 nmol/mg/min; EC50 (PBMC): 95 nM; Tmax [7]: 60 min
4 | Cc1cnc2c(NCCN)nc3cc(-c4ccccc4)sc3n12 | 910 | 22 | > 100000 | 77000 | Activity [4]: inactive; Activity [8]: inactive; Activity [9]: inactive; Activity [10]: inactive; Activity [11]: inactive; Activity [12]: inactive; Activity (Homo sapiens [13]): inactive; Activity [14]: inactive; Activity (Homo sapiens [15]): inactive
5 | COc1ccccc1-c1cc2nc(NCCN)c3ncc(C)n3c2s1 | 13000 | 280 | > 100000 | 3500 | 
6 | Cc1cnc2c(NCCN)nc3cc(-c4cccc(CO)c4)sc3n12 | 450 | 8 | 2400 |  | CC50 ([3]; jurkat): 7000 nM
7 | Cc1cnc2c(NCCN)nc3cc(-c4ccccn4)sc3n12 | 1240 | 190 | > 100000 | 13000 | 
8 | CNc1nc2cc(-c3cccc(CCC(N)=O)c3)sc2n2c(C)cnc12 | 1210 | 19 | 810 | > 100000 | 
9 | CNc1nc2cc(-c3cccc(C(=O)O)c3)sc2n2c(C)cnc12 | 14400 | 190 | 65700 | > 100000 | 
10 | CNc1nc2cc(-c3cccc(CC(N)=O)c3)sc2n2c(C)cnc12 | 680 | 8 | 360 | > 100000 | Stability (Liver microsomes): 0.062 nmol/mg/min; Stability (Liver): 0.13 nmol/mg/min; Cmax [5]: 290 nM; AUC(0-t) [6]: 0.63 µM·h; EC50 (PBMC): 65 nM; Tmax [7]: 30 min
11 | Cc1cnc2c(NCCO)nc3cc(-c4ccccc4)sc3n12 | 3480 | 85 | 7170 | > 100000 | 
12 | CNc1nc2cc(-c3cccc(CCC(=O)O)c3)sc2n2c(C)cnc12 | 1340 | < 9 | 4960 | > 100000 | 
13 | Cc1cnc2c(NCCN)nc3cc(-c4nccs4)sc3n12 | 1110 | 230 | 18600 | 5900 | 

Second part, led by results:

Row | IC50 [1] [nM] | IC50 [2] [nM] | EC50 (Jurkat) [nM] | SMILES | CC50 ([3]; Jurkat cells) [nM] | further results
14 | 130 | 18 | 550 | CNc1nc2cc(-c3cccc(CCNC(N)=O)c3)sc2n2c(C)cnc12 | > 100000 | Activity [4]: inactive
15 | 260 | 43 | 340 | CNc1nc2cc(-c3cccc(CNC(N)=O)c3)sc2n2c(C)cnc12 | > 100000 | Stability (Liver microsomes): 0.066 nmol/mg/min; Stability (Liver): 0.221 nmol/mg/min; Cmax [5]: 150 nM; AUC(0-t) [6]: 0.38 µM·h; EC50 (PBMC): 68 nM; Tmax [7]: 30 min
16 | 2330 | 23 | 40900 | Cc1cnc2c(NCCN)nc3cc(-c4ccc(CO)cc4)sc3n12 | 14000 | 
17 | 260 | 14 | 450 | CNc1nc2cc(-c3cccc(C[C@H](N)C(N)=O)c3)sc2n2c(C)cnc12 | > 100000 | 
18 | 690 | 44 | 29200 | COc1cccc(-c2cc3nc(NCCN)c4ncc(C)n4c3s2)c1 | 3500 | 
19 | > 25000 | 360 | > 100000 | Cc1cnc2c(NCC(N)=O)nc3cc(-c4ccccc4)sc3n12 | > 100000 | 
20 | 330 | 36 | 470 | CNC(=O)C(N)Cc1cccc(-c2cc3nc(NC)c4ncc(C)n4c3s2)c1 (racemic) | 68000 | solubility [16]: 42 µg/mL (≈ 106 µM)
21 | 7030 | 290 | 10200 | CC(=O)NCCNc1nc2cc(-c3ccccc3)sc2n2c(C)cnc12 | > 100000 | 
22 | 4400 | 130 | 15600 | Cc1cnc2c(NCCN)nc3cc(-c4ccccc4CO)sc3n12 | > 100000 | 

Source: ChEMBL document CHEMBL1140018, “Synthesis and structure-activity relationship of imidazo(1,2-a)thieno(3,2-e)pyrazines as IKK-beta inhibitors” (Bioorg Med Chem Lett, 2007)
